Values after ≈ are worked out from the molar mass of the structure shown.
Assays:
C. glabrata = conditions: RPMI1640 broth, 35° C., 48 hours, visual reading; expressed as a range value
S. aureus (+) = conditions: MHB liquid medium, 37° C., 24 hours
Method: (§1) The antibacterial activities against Gram-positive bacteria, Gram-negative bacteria or multi-drug resistant bacteria were evaluated for the compounds of the present invention. The MIC test was conducted in accordance CLSI guidelines. E. coli(−), P. aeruginosa(−), and S. enterica(−) were used as Gram-negative bacteria, B. cereus(+), B. subtilis(+), B. coagulans(+), L. monocytogenes(+), M. luteus(+), P. acnes(+), S. epidermidis(+), and S. aureus(+) were used as Gram-positive bacteria. Methicillin-resistant Staphylococcus aureus (MRSA) was used as multi-drug resistant bacteria. The bacterial cells were incubated until the OD600 of the single colonies reached 0.1. […] Subsequently, bacterial cells were incubated at 37° C. for 24 hours, and then the MICs (μg/ ? ) were determined by visual reading and optical density detection at 600 nm (OD600). As a positive control, Nofloxacin and Vancomycin were used.

S. epidermidis (+) = conditions: MHB liquid medium, 37° C., 24 hours
Method: as §1

E. coli (−) = assay: Antibacterial MIC test (CLSI); assay type: cell-based; conditions: for MIC E. coli (−): MHB liquid medium, 37° C., 24 hours
Method: (§2) The MIC test was conducted in accordance CLSI guidelines. […] As a positive control, Nofloxacin and Vancomycin were used.

B. subtilis (+) = assay: Antibacterial MIC test (CLSI); assay type: cell-based; conditions: for MIC B. subtilis (+): MHB liquid medium, 37° C., 24 hours
Method: as §2

B. cereus (+) = assay: Antibacterial MIC test (CLSI); assay type: cell-based; conditions: for MIC B. cereus (+): MHB liquid medium, 37° C., 24 hours
Method: as §2

S. aureus enterica (−) = assay: Antibacterial MIC test (CLSI); assay type: cell-based; conditions: for MIC S. aureus enterica (−): MHB liquid medium, 37° C., 24 hours
Method: as §2

L. monocytogenes (+) = assay: Antibacterial MIC test (CLSI); assay type: cell-based; conditions: for MIC L. monocytogenes (+): MHB liquid medium, 37° C., 24 hours
Method: as §2

B. coagulans (+) = assay: Antibacterial MIC test (CLSI); assay type: cell-based; conditions: for MIC B. coagulans (+): MHB liquid medium, 37° C., 24 hours
Method: as §2

M. luteus (+) = assay: Antibacterial MIC test (CLSI); assay type: cell-based; conditions: for MIC M. luteus (+): MHB liquid medium, 37° C., 24 hours
Method: as §2

P. acnes (+) = assay: Antibacterial MIC test (CLSI); assay type: cell-based; conditions: for MIC P. acnes (+): MHB liquid medium, 37° C., 24 hours
Method: as §2

MRSA = assay: Antibacterial MIC test (CLSI); assay type: cell-based, Methicillin-resistant Staphylococcus aureus; conditions: for MIC MRSA: MHB liquid medium, 37° C., 24 hours
Method: as §2

C. albicans = conditions: RPMI1640 broth, 35° C., 48 hours, visual reading; expressed as a range value
C. neoformans = conditions: RPMI1640 broth, 35° C., 72 hours, visual reading; expressed as a range value
A. fumigatus = conditions: visual reading; expressed as a range value
Method: An in vitro antifungal susceptibility test was performed in accordance with the US Clinical and Laboratory Standards Institute (CLSI) guidelines to measure the degree of antifungal activity of the compounds synthesized in the Preparation Examples against opportunistic pathogenic fungi. […] The MIC value (μg/ ? ) is expressed as a range value. Specifically, Candida species and Cryptococcus neoformans were incubated in a Sabouraud dextrose agar (SDA) (Sigma-Aldrich) solid medium for 24 and 48 hours, respectively to obtain single colonies. The obtained single colonies were suspended in 0.85% physiological saline to prepare fungal cell suspension (1 to 5×10^6 cells/ ? ). Fungal cells 2000-fold diluted in RPMI1640 broth (Sigma-Aldrich) were seeded on 96-well plates (5×10^2 to 2.5×10^3 cells/ ? , 195 ? /well). Serial two-fold dilutions (128, 64, 32, 16, 8, 4, 2, 1, and 0.5 μg/ ? ) of compounds were prepared by diluting the compounds synthesized according to the above preparation examples. Then, 5 ? from each dilution was added to the well of the 96-well plate containing fungal cell suspension to give a final suspension of 200 ? per well. […] As a positive control, amphotericin B (AMB), which is highly toxic to the human body but is known as a representative antifungal agent, was used.

SMILES	MIC (μg/mL) C. glabrata (C. glabrata)	MIC S. aureus (+) (S. aureus (+)) [µg/mL]	MIC S. epidermidis (+) (S. epidermidis (+)) [µg/mL]	MIC E. coli (−) (E. coli (−)) [µg/mL]	MIC B. subtilis (+) (B. subtilis (+)) [µg/mL]	MIC B. cereus (+) (B. cereus (+)) [µg/mL]	MIC S. aureus enterica (−) (S. aureus enterica (−)) [µg/mL]	MIC L. monocytogenes (+) (L. monocytogenes (+)) [µg/mL]	MIC B. coagulans (+) (B. coagulans (+)) [µg/mL]	MIC M. luteus (+) (M. luteus (+)) [µg/mL]	MIC P. acnes (+) (P. acnes (+)) [µg/mL]	MIC MRSA (MRSA) [µg/mL]	MIC (μg/mL) C. albicans (C. albicans)	MIC (μg/mL) C. neoformans (C. neoformans)	MIC (μg/mL) A. fumigatus (A. fumigatus)	other results
CCC(N)C(=O)Nc1ccc(-c2ccc(Cl)c(Cl)c2)cc1.Cl (racemic) [Compound 29, (R)/(S)-2-amino-N-(3′,4′-dichloro-[1,1′-biphenyl]-4-yl)butanamide hydrochloride]	4~16 μg/mL	<4	<4	8	<4	8	8	<4	<4	<4	<4	<4	4~16 μg/mL	2~8 μg/mL	4~16 μg/mL	
CCCC(N)C(=O)Nc1ccc(-c2ccc(Cl)c(Cl)c2)cc1.Cl (racemic) [Compound 30, (R)/(S)-2-amino-N-(3′,4′-dichloro-[1,1′-biphenyl]-4-yl)pentanamide hydrochloride]	4~16 μg/mL	16	16	>32	16	32	>32	16	8		16	16	4~16 μg/mL	2~8 μg/mL	4~16 μg/mL	
CCCCC(N)C(=O)Nc1ccc(-c2ccc(Cl)c(Cl)c2)cc1.Cl (racemic) [Compound 31, (R)/(S)-2-amino-N-(3′,4′-dichloro-[1,1′-biphenyl]-4-yl)hexanamide hydrochloride]	0.5~4 μg/mL	<4	<4	<4	<4	<4	8	<4	<4	<4	<4	<4	0.5~4 μg/mL	0.5~4 μg/mL	0.5~4 μg/mL	
CCC(NC)C(=O)Nc1ccc(-c2ccc(Cl)c(Cl)c2)cc1.Cl (racemic) [Compound 33, (R)/(S)-N-(3′,4′-dichloro-[1,1′-biphenyl]-4-yl)-2-(methylamino)butanamide hydrochloride]	8~32 μg/mL	8	<4	8	8	16	16	<4	<4	<4	<4	<4	8~32 μg/mL	4~16 μg/mL	8~32 μg/mL	
CCCCC(N)C(=O)NCCc1ccc(-c2ccc(Cl)c(Cl)c2)cc1.Cl (racemic) [Compound 75, (R)/(S)-2-amino-N-(2-(3′,4′-dichloro-[1,1′-biphenyl]-4-yl)ethyl)hexanamide hydrochloride]	0.5~4 μg/mL	8	8	32	8	16	>32	8		8	8	8	0.5~4 μg/mL	0.5~4 μg/mL	0.5~4 μg/mL	
CCCC(NC)C(=O)NCCc1ccc(-c2ccc(OC(F)(F)F)cc2)cc1.Cl (racemic) [Compound 90, (R)/(S)-2-(methylamino)-N-(2-(4′-(trifluoromethoxy)-[1,1′-biphenyl]-4-yl)ethyl)pentanamide hydrochloride]	4~16 μg/mL												4~16 μg/mL	4~16 μg/mL	4~16 μg/mL	
CCCC(C(=O)NCCc1ccc(-c2ccc(Cl)c(Cl)c2)cc1)N(C)C (racemic) [Compound 92, (R)/(S)-N-(2-(3′,4′-dichloro-[1,1′-biphenyl]-4-yl)ethyl)-2-(dimethylamino)pentanamide]	8~32 μg/mL												8~32 μg/mL	4~16 μg/mL	8~32 μg/mL	
C[C@@H]1[C@H](O)[C@@H](C)/C=C/C=C/C=C/C=C/C=C/C=C/C=C/[C@H](O[C@@H]2O[C@H](C)[C@@H](O)[C@H](N)[C@@H]2O)C[C@@H]2O[C@](O)(C[C@@H](O)C[C@@H](O)[C@H](O)CC[C@@H](O)C[C@@H](O)CC(=O)O[C@H]1C)C[C@H](O)[C@H]2C(=O)O [ABM, amphotericin B, reference compound]	0.5 µg/mL (≈ 0.541 µM)												0.25 µg/mL (≈ 0.271 µM)	0.25 µg/mL (≈ 0.271 µM)	1 µg/mL (≈ 1.08 µM)	
CCn1cc(C(=O)O)c(=O)c2cc(F)c(N3CCNCC3)cc21 [Nofloxacin, reference compound]				<0.125	<0.125	1 (≈ 3.13 µM)	<0.125	<0.125	<0.125	<0.125	<0.125	0.5 (≈ 1.57 µM)				
CN[C@H](CC(C)C)C(=O)N[C@H]1C(=O)N[C@@H](CC(N)=O)C(=O)N[C@H]2C(=O)N[C@H]3C(=O)N[C@H](C(=O)N[C@H](C(=O)O)c4cc(O)cc(O)c4-c4cc3ccc4O)[C@H](O)c3ccc(c(Cl)c3)Oc3cc2cc(c3O[C@@H]2O[C@H](CO)[C@@H](O)[C@H](O)[C@H]2O[C@H]2C[C@](C)(N)[C@H](O)[C@H](C)O2)Oc2ccc(cc2Cl)[C@H]1O [Vancomycin, reference compound]																MIC (E. coli (−); Escherichia coli, 24 h, read-out: MIC E. coli (−)): 64 µg/mL (≈ 44.2 µM); MIC (B. subtilis (+); Bacillus subtilis, 24 h, read-out: MIC B. subtilis (+)): 0.25 µg/mL (≈ 0.173 µM); MIC (B. cereus (+); Bacillus cereus, 24 h, read-out: MIC B. cereus (+)): 0.5 µg/mL (≈ 0.345 µM); MIC (S. aureus enterica (−); Staphylococcus aureus, 24 h, read-out: MIC S. aureus enterica (−)): > 64 µg/mL; MIC (L. monocytogenes (+); Listeria monocytogenes, 24 h, read-out: MIC L. monocytogenes (+)): 0.25 µg/mL (≈ 0.173 µM); MIC (B. coagulans (+); Heyndrickxia coagulans, 24 h, read-out: MIC B. coagulans (+)): 0.25 µg/mL (≈ 0.173 µM); MIC (M. luteus (+); Micrococcus luteus, 24 h, read-out: MIC M. luteus (+)): 0.25 µg/mL (≈ 0.173 µM); MIC (P. acnes (+); Cutibacterium acnes, 24 h, read-out: MIC P. acnes (+)): < 0.125 µg/mL; MIC (MRSA; Staphylococcus aureus, MRSA, 24 h, read-out: MIC MRSA): 1 µg/mL (≈ 0.69 µM)
